Tests used:
[1] = biological target: T1, horse liver alcohol dehydrogenase (HLAD) (Equus caballus, UniProt P00327); assay: Enzymatic screening of probes 1-7 against a panel of oxidoreductases; type: biochemical; details: 12 hour incubation, 30-50 μM substrate, pH 7, 250 μM NAD(P)H
T1 construct: purchased Sigma (St. Louis, Mo.) Lot Number 51K7520 (catalogue number not given)
Experimental: FIG. 4. Screening of probes 1-7 against a panel of oxidoreductases Percentage fluorescence increase after 12 hour incubation of 30-50 μM substrate, 100 mM phosphate buffer (pH 7), 250 μM NAD(P)H, and 100 nM enzyme. Substrates 1, 2, 3, and 4 monitored at λexc=340 nm, λem=440 nm. Substrates 5, 6, and 7 monitored at λexc=440 nm, λem=510 nm. 3HSD, 3α-hydroxysteroid dehydrogenase (PT, Pseudomonas testosteroni), HLAD, horse liver alcohol dehydrogenase, TBAD, Thermoanaerobium brockii alcohol dehydrogenase, BS 12HSD, Bacillus sp. 12α-hydroxysteroid dehydrogenase, ABAD, amyloid-β binding alcohol dehydrogenase (human), GDH, glycerol dehydrogenase, YADH, yeast alcohol dehydrogenase, LDH, lactate dehydrogenase.
Probes 1-7 (see FIG. 3) were subsequently tested against a collection of dehydrogenases in the presence of NAD(P)H; the extent of reduction was assessed by the measurement of fluorescence intensity at the emission maximum of each probe (FIG. 4). This assay included enzymes from two major oxidoreductase superfamilies, the short chain alcohol dehydrogenases (SDR) and the aldo-keto reductases (AKR), ranging from bacterial to mammalian and human enzymes.
Horse Liver alcohol dehydrogenase (Lot Number 51K7520), Thermoanaerobium brockii NADP^+ dependent alcohol dehydrogenase (Lot Number 033K4093), Pseudomonas testosteroni 3α-hydroxysteroid dehydrogenase (Lot Number 053K8624), and Bacillus sphaericus 12α-hydroxysteroid dehydrogenase (Lot Number 70K16621) were purchased from Sigma (St. Louis, Mo.). Yeast alcohol dehydrogenase (Lot Number 93122920), glycerol dehydrogenase (Lot Number 92110122), (D)-lactate dehydrogenase (Lot Number 92419236), (L)-lactate dehydrogenase (Lot Number 92801821), NAD^+, NADP^+, NADH, and NADPH were purchased from Roche. Enzyme activity was confirmed by compliance to supplier's quality control assays prior to usage. Rat and human 3α-hydroxysteroid dehydrogenases were provided by Professor Trevor Penning (University of Pennsylvania School of Medicine) and human amyloid-β peptide binding alcohol dehydrogenase was supplied by Professor Shi Du Yan (Columbia University School for Physicians and Surgeons).
Enzymatic assays were performed in triplicate on selected fluorogenic substrates according to the following protocol. To each well of a FALCON 96-well black flat bottom plate was added (1) 40 μL of 500 mM potassium phosphate buffer pH 7.0, (2) 113 μL of double deionized water, (3) 25 μL of 2 mM NADH (except for Pseudomonas testosteroni 3α-hydroxysteroid dehydrogenase, rat 3α-hydroxysteroid dehydrogenase, and Thermoanaerobium brockii NADP^+ dependent alcohol dehydrogenase, in which cases 2 mM of NADPH was used), (4) 2 μL of a 3-5 mM solution of substrate in DMSO, and (5) 20 μL of a 40-50 μg/mL solution of enzyme. Reaction volumes were mixed thoroughly after addition of cofactor, substrate, and enzyme and allowed to react 12 hours at 25° C. Scanning of the 96-well plate was performed by the MicroMax 384 connected to a Jobin Yvon Fluorolog through F-3000 fiber optic cables.
Initial Screening with Fluorogenic Substrates: Screening of the first fluorogenic substrates for enzymatic activity has been described above. In short, 200 μL enzymatic assay volumes containing 100 mM potassium phosphate buffer (pH 7), 250 μM NAD(P)H cofactor, and 30-50 μM of ketones (1-7) were incubated for 12 hours on a black FALCON 96-well plate. Formation of the alcohol reduction product was determined by reading the fluorescence arising from excitation at the corresponding alcohol at either 340 nm (27-30) or 440 nm (31-33).

AKR1C1-AKR1C4 = assay: Substrate tolerance and selectivity across the four human AKR1C isozymes; type: biochemical; details: AKR1C1-AKR1C4, purified enzymes, NADPH
Source text: AKR1C2 and AKR1C3 Selective Probes: Probes (5a-5i) were examined as substrates for the four purified human HSD isozymes (AKR1C1-AKR1C4) under standard assay conditions [catalytic quantities of enzyme, an excess of cofactor (NADPH)]. The initial reaction rates were used to derive standard kinetic parameters (kcat and Km, Materials and Methods).
Substrate tolerance of AKR1Cs: Isozyme Activity with 5a-5i: Activity of the second generation of fluorogenic substrates with the AKR1C isozymes was determined as follows. To a STARNA semi-micro fluorimeter cell (with 4 polished windows) was added 100 μL of 1 M potassium phosphate buffer (pH 6), 840 μL doubly deionized water, and 20 μL of 12.5 mM NADPH. After mixing the aqueous components thoroughly, 20 μL of acetonitrile was added as a cosolvent and mixed well. 20 μL of 2.5 mM second generation fluorogenic ketone in acetonitrile (5a-5i) was then added and mixed. 4 μL of undiluted AKR1C (provided generously by the Penning lab at concentrations of 2.5 mg/mL) were then added to the cuvette for a total of 10 μg purified enzyme in the 1 mL assay volume. Fluorescence arising from the respective alcohol reduction product was then monitored over the course of 5-10 minutes.
Binding constant and catalytic rates (Km and kcat) of the second generation of fluorogenic substrates was determined as follows. To a STARNA semi-micro fluorometer cell (with 4 polished windows) was added 100 μL of 1 M potassium phosphate buffer (pH 6), 840 μL doubly deionized water, and 20 AL of 12.5 mM NADPH. After mixing the aqueous components thoroughly, 20 μL of acetonitrile was added as a cosolvent and mixed well. […] Fluorescence arising from the respective alcohol reduction product was then monitored over the course of 3 minutes (Excitation and emission band pass slits both at 4 nm, lamp 700 V, λexc 410 nm, λem 510). The rate of product formation, expressed in units of nanomoles per minute, were calculated according to previously published procedures (Wierzchowski, J.; Dafeldecker, W. P.; Holmquist, B.; Vallee, B. L. Anal. Biochem. 1989, 178, 57-62): […]

T1 sequence (P00327 2-375 limits assumed): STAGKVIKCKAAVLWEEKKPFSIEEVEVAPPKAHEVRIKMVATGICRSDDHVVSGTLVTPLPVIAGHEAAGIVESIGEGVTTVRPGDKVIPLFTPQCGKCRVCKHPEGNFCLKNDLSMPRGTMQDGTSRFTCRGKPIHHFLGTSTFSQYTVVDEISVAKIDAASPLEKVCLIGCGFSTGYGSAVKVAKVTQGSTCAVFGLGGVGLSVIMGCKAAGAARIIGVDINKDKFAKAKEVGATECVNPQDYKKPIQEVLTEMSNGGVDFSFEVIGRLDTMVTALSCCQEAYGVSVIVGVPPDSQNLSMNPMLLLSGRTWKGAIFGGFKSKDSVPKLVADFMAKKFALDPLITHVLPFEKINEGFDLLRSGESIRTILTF

For CC(=O)c1cc(=O)oc2c3c4c(cc12)CCCN4CCC3 [compound 5, 8-Acetyl-2,3,5,6-tetrahydro-1H,4H-11-oxa-3a-aza-benzo[de]anthracen-10-one], the “reduction of probe (fluorescence increase)” value [1] was “not acceptant” and the “acceptance as substrate by the four human isozymes” value (AKR1C1-AKR1C4) was “all four human isozymes catalyzed the reduction”.
